Laboratory results taken from patent publication US10017584B2, “6-deoxy-6-thioether-amino acid cyclodextrin derivative and preparation method thereof” (Hangzhou Adamerck Pharmlabs Inc., priority 2010, dated 2018).
Where two headings read alike, the source gives them in different places.

Tests used:
small mice [1] = assay: Toxic reactions after intravenous tail injection in male small mice; conditions: intravenous injection at the tail, 200 mg/ml, 4000 mg/kg
From the text: (§1) Male small mice are processed with intravenous injection with compounds of the present invention at the tails.

[2] = system: muscular relaxation induced by rocuronium bromide; assay: Reversal of rocuronium bromide induced muscular relaxation in anaesthetised Guinea pigs (TOF-Watch SX monitor); format: in vivo, Guinea pig
From the text: After pentobarbital sodium anesthesia in the abdominal cavity, the Guinea pigs are fixed on rat boards and connected to small animal ventilators after endotracheal intubation. Stimulating electrodes of a muscular relaxation monitor, TOF-Watch SX, are respectively connected to left post-femur and post-tibialis subcutis of the Guinea pig. Self-made tools are used to fix the left tibialis on a small platform while permitting the left hind paw to be able to move freely. A sensor is fixed on a palm surface of a left hind leg of the Guinea pig and a probe of skin temperature is fixed on a palm surface of a left front leg of the Guinea pig.

small mice [3] = conditions: according to reports; cited from earlier work
small mice [4] = conditions: mouse, in vivo, iv, 4000 mg/kg
From the text: as §1

[5] = Guinea pig, compound 2 mg/kg given when TOFR disappears and T1 decreases more than 80%, after i.v. rocuronium bromide (twice ED90 dose)
[6] = guinea pig, in vivo, iv, 2 mg/kg

Compound | result description (toxic reactions) (small mice [1]) | T1 recovering to 25%/time [2, 6] [min] | T1 recovering to 50%/time [2, 6] [min] | T1 recovering to 75%/time [2, 6] [min] | TOF recovering to 50%/time [2, 6] [min] | TOF recovering to 75%/time [2, 6] [min] | further results
N[C@@H](CCSC[C@H]1O[C@@H]2O[C@H]3[C@H](O)[C@@H](O)[C@@H](O[C@H]4[C@H](O)[C@@H](O)[C@@H](O[C@H]5[C@H](O)[C@@H](O)[C@@H](O[C@H]6[C@H](O)[C@@H](O)[C@@H](O[C@H]7[C@H](O)[C@@H](O)[C@@H](O[C@H]8[C@H](O)[C@@H](O)[C@@H](O[C@H]9[C@H](O)[C@@H](O)[C@@H](O[C@H]1[C@H](O)[C@H]2O)O[C@@H]9CSCC[C@H](N)C(=O)[O-])O[C@@H]8CSCC[C@H](N)C(=O)[O-])O[C@@H]7CSCC[C@H](N)C(=O)[O-])O[C@@H]6CSCC[C@H](N)C(=O)[O-])O[C@@H]5CSCC[C@H](N)C(=O)[O-])O[C@@H]4CSCC[C@H](N)C(=O)[O-])O[C@@H]3CSCC[C@H](N)C(=O)[O-])C(=O)[O-].[Na+].[Na+].[Na+].[Na+].[Na+].[Na+].[Na+].[Na+] [CD-17, 6-per-deoxy-6-per-(α-L-amino acid ethyl)thioether-γ-cyclodextrin sodium salt] | normal |  |  |  |  |  | T1 recovering to 25%/time [2, 5]: 3.00 min; T1 recovering to 50%/time [2, 5]: 5.25 min; T1 recovering to 75%/time [2, 5]: 7.75 min; TOF recovering to 50%/time [2, 5]: 3.00 min; TOF recovering to 75%/time [2, 5]: 6.25 min
6-per-deoxy-6-per-(N-methyl-D-cysteine)thioether-β-cyclodextrin sodium salt [CD-27] |  | 8.25 | 11.25 | 16.00 | 8.25 | 10.75 | 
N[C@@H](CSC[C@H]1O[C@@H]2O[C@H]3[C@H](O)[C@@H](O)[C@@H](O[C@H]4[C@H](O)[C@@H](O)[C@@H](O[C@H]5[C@H](O)[C@@H](O)[C@@H](O[C@H]6[C@H](O)[C@@H](O)[C@@H](O[C@H]7[C@H](O)[C@@H](O)[C@@H](O[C@H]8[C@H](O)[C@@H](O)[C@@H](O[C@H]9[C@H](O)[C@@H](O)[C@@H](O[C@H]1[C@H](O)[C@H]2O)O[C@@H]9CSC[C@H](N)C(=O)[O-])O[C@@H]8CSC[C@H](N)C(=O)[O-])O[C@@H]7CSC[C@H](N)C(=O)[O-])O[C@@H]6CSC[C@H](N)C(=O)[O-])O[C@@H]5CSC[C@H](N)C(=O)[O-])O[C@@H]4CSC[C@H](N)C(=O)[O-])O[C@@H]3CSC[C@H](N)C(=O)[O-])C(=O)[O-].[Na+].[Na+].[Na+].[Na+].[Na+].[Na+].[Na+].[Na+] [CD-7, 6-per-deoxy-6-per-(α-L-glycinemethyl)thioether-γ-cyclodextrin sodium salt] | normal | 1.25 | 1.50 | 2.75 | 1.25 | 1.50 | 
CC(=O)NC(CSC[C@H]1O[C@@H]2O[C@H]3[C@H](O)[C@@H](O)[C@@H](O[C@H]4[C@H](O)[C@@H](O)[C@@H](O[C@H]5[C@H](O)[C@@H](O)[C@@H](O[C@H]6[C@H](O)[C@@H](O)[C@@H](O[C@H]7[C@H](O)[C@@H](O)[C@@H](O[C@H]8[C@H](O)[C@@H](O)[C@@H](O[C@H]9[C@H](O)[C@@H](O)[C@@H](O[C@H]1[C@H](O)[C@H]2O)O[C@@H]9CSCC(NC(C)=O)C(=O)[O-])O[C@@H]8CSCC(NC(C)=O)C(=O)[O-])O[C@@H]7CSCC(NC(C)=O)C(=O)[O-])O[C@@H]6CSCC(NC(C)=O)C(=O)[O-])O[C@@H]5CSCC(NC(C)=O)C(=O)[O-])O[C@@H]4CSCC(NC(C)=O)C(=O)[O-])O[C@@H]3CSCC(NC(C)=O)C(=O)[O-])C(=O)[O-].[Na+].[Na+].[Na+].[Na+].[Na+].[Na+].[Na+].[Na+] (stereo partly drawn) [CD-9, 6-per-deoxy-6-per-(N-acetylglycinemethyl)thioether-γ-cyclodextrin sodium salt] | normal | 1.25 | 1.75 |  | 1.50 | 3.25 | 
N[C@H](CSC[C@H]1O[C@@H]2O[C@H]3[C@H](O)[C@@H](O)[C@@H](O[C@H]4[C@H](O)[C@@H](O)[C@@H](O[C@H]5[C@H](O)[C@@H](O)[C@@H](O[C@H]6[C@H](O)[C@@H](O)[C@@H](O[C@H]7[C@H](O)[C@@H](O)[C@@H](O[C@H]8[C@H](O)[C@@H](O)[C@@H](O[C@H]1[C@H](O)[C@H]2O)O[C@@H]8CSC[C@@H](N)C(=O)[O-])O[C@@H]7CSC[C@@H](N)C(=O)[O-])O[C@@H]6CSC[C@@H](N)C(=O)[O-])O[C@@H]5CSC[C@@H](N)C(=O)[O-])O[C@@H]4CSC[C@@H](N)C(=O)[O-])O[C@@H]3CSC[C@@H](N)C(=O)[O-])C(=O)[O-].[Na+].[Na+].[Na+].[Na+].[Na+].[Na+].[Na+] [CD-25, 6-per-deoxy-6-per-(α-D-glycinemethyl)thioether-β-cyclodextrin sodium salt] | normal |  |  |  |  |  | 
6-per-deoxy-6-per-(N-ethyl-D-cysteine)thioether-β-cyclodextrin [CD-28] |  |  |  |  |  |  | T1 recovering to 25%/time [2, 5]: 8.25 min; T1 recovering to 50%/time [2, 5]: 12.25 min; T1 recovering to 75%/time [2, 5]: 15.00 min; TOF recovering to 50%/time [2, 5]: 12.75 min; TOF recovering to 75%/time [2, 5]: 16.25 min
6-per-deoxy-6-per-(N-methyl-D-cysteine)thioether-β-cyclodextrin [CD-26] |  |  |  |  |  |  | T1 recovering to 25%/time [2, 5]: 7.75 min; T1 recovering to 50%/time [2, 5]: 12.25 min; T1 recovering to 75%/time [2, 5]: 16.00 min; TOF recovering to 50%/time [2, 5]: 8.00 min; TOF recovering to 75%/time [2, 5]: 11.75 min
6-per-deoxy-6-per-(α-L-glycine methyl)sulfinyl-γ-cyclodextrin [CD-5] |  | 3.50 | 4.25 | 8.25 | 4.75 | 7.25 | 
6-per-deoxy-6-per-(α-L-glycine ethyl)thioether-γ-cyclodextrin [CD-16] |  | 2.25 | 3.50 | 8.50 | 3.50 | 5.75 | 
O=C(O)CCSC[C@H]1O[C@@H]2O[C@H]3[C@H](O)[C@@H](O)[C@@H](O[C@H]4[C@H](O)[C@@H](O)[C@@H](O[C@H]5[C@H](O)[C@@H](O)[C@@H](O[C@H]6[C@H](O)[C@@H](O)[C@@H](O[C@H]7[C@H](O)[C@@H](O)[C@@H](O[C@H]8[C@H](O)[C@@H](O)[C@@H](O[C@H]9[C@H](O)[C@@H](O)[C@@H](O[C@H]1[C@H](O)[C@H]2O)O[C@@H]9CSCCC(=O)O)O[C@@H]8CSCCC(=O)O)O[C@@H]7CSCCC(=O)O)O[C@@H]6CSCCC(=O)O)O[C@@H]5CSCCC(=O)O)O[C@@H]4CSCCC(=O)O)O[C@@H]3CSCCC(=O)O [Bridion, sugammadex] |  |  |  |  |  |  | maximal safe dose (small mice [3]): 2000 mg/kg
CC(C)(SC[C@H]1O[C@@H]2O[C@H]3[C@H](O)[C@@H](O)[C@@H](O[C@H]4[C@H](O)[C@@H](O)[C@@H](O[C@H]5[C@H](O)[C@@H](O)[C@@H](O[C@H]6[C@H](O)[C@@H](O)[C@@H](O[C@H]7[C@H](O)[C@@H](O)[C@@H](O[C@H]8[C@H](O)[C@@H](O)[C@@H](O[C@H]9[C@H](O)[C@@H](O)[C@@H](O[C@H]1[C@H](O)[C@H]2O)O[C@@H]9CSC(C)(C)[C@@H](N)C(=O)[O-])O[C@@H]8CSC(C)(C)[C@@H](N)C(=O)[O-])O[C@@H]7CSC(C)(C)[C@@H](N)C(=O)[O-])O[C@@H]6CSC(C)(C)[C@@H](N)C(=O)[O-])O[C@@H]5CSC(C)(C)[C@@H](N)C(=O)[O-])O[C@@H]4CSC(C)(C)[C@@H](N)C(=O)[O-])O[C@@H]3CSC(C)(C)[C@@H](N)C(=O)[O-])[C@@H](N)C(=O)[O-].[Na+].[Na+].[Na+].[Na+].[Na+].[Na+].[Na+].[Na+] [CD-20, 6-per-deoxy-6-per-(α-D-amino acid dimethyl)sulfinyl-γ-cyclodextrin sodium salt] |  |  |  |  |  |  | result description (toxic reactions) (small mice [4]): normal
6-per-deoxy-6-per-(N-ethyl-D-cysteine)thioether-β-cyclodextrin sodium salt [CD-29] |  | 6.75 | 8.50 | 9.25 | 6.50 | 8.25 | 
CC(=O)NC(CSC[C@H]1O[C@@H]2O[C@H]3[C@H](O)[C@@H](O)[C@@H](O[C@H]4[C@H](O)[C@@H](O)[C@@H](O[C@H]5[C@H](O)[C@@H](O)[C@@H](O[C@H]6[C@H](O)[C@@H](O)[C@@H](O[C@H]7[C@H](O)[C@@H](O)[C@@H](O[C@H]8[C@H](O)[C@@H](O)[C@@H](O[C@H]9[C@H](O)[C@@H](O)[C@@H](O[C@H]1[C@H](O)[C@H]2O)O[C@@H]9CSCC(NC(C)=O)C(=O)O)O[C@@H]8CSCC(NC(C)=O)C(=O)O)O[C@@H]7CSCC(NC(C)=O)C(=O)O)O[C@@H]6CSCC(NC(C)=O)C(=O)O)O[C@@H]5CSCC(NC(C)=O)C(=O)O)O[C@@H]4CSCC(NC(C)=O)C(=O)O)O[C@@H]3CSCC(NC(C)=O)C(=O)O)C(=O)O (stereo partly drawn) [CD-8, 6-per-deoxy-6-per-(N-acetylglycinemethyl)thioether-γ-cyclodextrin] |  |  | 2.75 | 4.25 | 2.50 | 3.50 | 
